From US20080033018A1, “Therapeutic Agents For Overactive Bladder” (Chugai Seiyaku Kabushiki Kaisha, priority 2004, published 2008)

How the values were obtained:
[1] = tested on: nNOS-Knockout mice; test: Urination dynamics (urination frequency, urination volume) in nNOS-Knockout mice, observation system for urination behavior; type: in vivo
Description: There has been established no animal models of disease reflecting frequent urination in elderly male subjects. In carefully searching various kinds of information, nNOS-Knockout mice were pointed out to have a possibility as a model of frequent urination (dilatation of urinary bladder, hyperplasia of smooth muscle, lack of relaxation responses, see Non-patent Document 9 for its creation) in May, 1997 (Non-patent Document 10), but have not been studied as a therapeutic model. nNOS-Knockout mice have now been investigated for their possibility as a model of frequent urination by using an instrument (an observation system for urination behavior, Muromachi Kikai Co., Ltd., Japan) to determine urination dynamics (urination volume and urination frequency) of the mice. […]
Nicorandil was given to nNOS-Knockout mice (8-13 months of age) by forced oral administration at 6 mg/kg/day for 7 days using a sound for oral administration. […]
The daily urination frequency was measured with an observation system for urination behavior (Muromachi Kikai Co., Ltd., Japan). […]
Furthermore, with the aim of clarifying the contribution of the nicorandil's nitrate-like action, pinacidil (SIGMA) known as a pure and potent KATP channel opener was also used for comparison of the urination frequency (FIG. 2).

[2] = tested on: KATP channel; conditions: report, Non-patent Document 7; cited from earlier work
[3] = tested on: non-anesthetized conscious rats; test: Hypotensive effect (blood pressure) in non-anesthetized conscious rats after oral administration; type: in vivo, rat; conditions: compared at a dosage causing a 20 mmHg reduction in blood pressure, FIG. 4
Description: In view of this fact, to study a hypotensive effect regarded as a side effect in the amelioration of frequent urination, both drugs were compared for their effect on blood pressure when orally administrated to non-anesthetized conscious rats (“non-anesthetized conscious rat” as used herein refers to an animal pre-treated such that a catheter for blood pressure measurement is inserted and placed in its femoral artery under anesthesia to ensure blood pressure monitoring, which animal is used on the following day after the anesthesia wears off). […] The measurement of blood pressure was performed as follows: the catheter for blood pressure measurement was connected to a blood pressure transducer (Nihon Kohden Corporation, Japan) and input into a polygraph (Nihon Kohden Corporation, Japan).

[4] = tested on: urethral obstruction rats; conditions: rat, in vivo, po, 1 mg/kg
Procedure: “Urinary retention” as used herein refers to a state where the urination volume is 3 hr=0.
Rats at 45 days after urethral obstruction (φ1 mm, urethra was obstructed in rats at 9 weeks of age) were administered orally with nicorandil (3 mg/kg) or KRN2391 (1 mg/kg), subjected to water loading (30 ml/kg, po) and then monitored for their urination volume over 180 minutes (n=10 for each group).

[5] = tested on: nNOS-Knockout mice; test: Daily urination volume in nNOS-Knockout mice (oliguria); type: in vivo; conditions: nNOS-Knockout mice 12-16 weeks, 1 mg/kg, 24 hours after administration, p<0.05
[6] = tested on: urethral obstruction rats; test: Urination frequency after water loading in rat urethral obstruction model; type: in vivo; conditions: over 210 minutes
Description: As described above, there are many causes that induce frequent urination, and dysuria-induced frequent urination is also known. A rat animal model of urethral obstruction has been reported as a model for efficacy verification of many ameliorating agents for frequent urination (Non-patent Documents 17 and 18). In this example, a midline incision was made in the lower quadrant of each rat (9 weeks of age) under pentobarbital anesthesia, and the proximal urethra was ligatured together with a stainless rod (φ1 mm) by using a 3-0 silk suture, followed by pulling out the rod to create a urethral obstruction model. At 45 days after urethral obstruction, the rats were subjected to water loading (30 ml/kg, po; “water loading” as used herein refers to forced oral administration of distilled water using a sound) and observed for their urination frequency over 210 minutes, such that animals having a urination frequency greater than that of normal animals (5 times) were selected as animals with frequent urination. These animals were administered orally with nicorandil (1 mg/kg) or KRN2391 (1 mg/kg) (dissolved in distilled water for water loading) and then observed for their urination frequency over 210 minutes (n=5 for each group).

[7] = Enarmon-depot 3.6 mg/kg/day, sc, 7 days, n=5, vs control group (n=8), p<0.05

Structure (SMILES): CCCCCCC(=O)O[C@H]1CC[C@H]2[C@@H]3CCC4=CC(=O)CC[C@]4(C)[C@H]3CC[C@]12C [testosterone, testosterone enanthate]
- daily urination volume ([1]; Enarmon-depot 3.6 mg/kg/day, sc, 7 days, n=5, vs control group (n=8)): no change
- single urination volume [1, 7]: significant increase
- urination frequency [1, 7]: significant decrease

Structure (SMILES): N#CNC(=NCCO[N+](=O)[O-])c1cccnc1 [KRN2391]
- effect on daily urination frequency (ameliorating effect on urination) ([1]; 1 mg/kg, p<0.05, FIG. 2): significant ameliorating effect
- hypotensive effect due to KATP channel opening action, stronger than that of nicorandil [2]: 25 fold
- amount producing hypotensive effect, smaller than nicorandil [3]: 10 fold
- number of animals without urination [4]: 5 animals
- urinary retention [4]: a state of urinary retention was observed
- urination volume [4]: 0.50 ± 0.30 mL
- effect on daily urination volume [5]: significant inhibitory effect
- reduction of urination frequency ([6]; 1 mg/kg po, vs before administration): 34.3%
- urination frequency after administration ([6]; 45 days after obstruction, 1 mg/kg po with water loading 30 ml/kg, n=5, p<0.05): 2.4±0.8 times/210 minutes

Structure (SMILES): CC(N/C(=N\C#N)Nc1ccncc1)C(C)(C)C (stereo not shown) [pinacidil]
- urination frequency ([1]; oral 0.3 mg/kg (dose strongly affecting the mouse cardiovascular system), FIG. 2): no significant decrease
